Measured values as given in patent publication US5354862A, “Preparation and the use of halopropargylated cyclic quaternary ammonium compounds as antimicrobial agents” (Rohm and Haas Company, priority 1993, dated 1994).
Like-named read-outs stand apart in the source and are kept apart here.

Columns and labels:
Assay in all cases: Broth two-fold serial dilution MIC test
Pseudomonas aeruginosa = type: cell-based, Pseudomonas aeruginosa (ATCC 15442); conditions: Table 2, Psae
Description: (§1) A minimum inhibitory concentration (MIC) value is obtained using a broth, two-fold serial dilution test performed as follows: A stock solution or dispersion of the test compound, typically at a concentration of 1%, is made in a 5:3:2 solvent solution of acetone. methanol, and water. A volume of the stock solution is dispensed into culture media to give an initial starting test concentration of 500 ppm compound.
(§2) When the test is ready to be done, each vessel in the dilution series, except the first vessel, contains an equal volume of compound free broth. The first vessel contains twice the volume of broth with the starting concentration of test compound. One half of the broth from the first vessel is transferred to the second vessel- After being mixed, one half the resulting volume is removed from the second vessel and transferred to the third vessel. The entire cycle is repeated sufficiently to give a series of concentrations amounting to 500, 250, 125, 63, 31, 16, 8, and 4, 2, 1, 0.5, 0.25 ppm respectively.
(§3) Each vessel is then inoculated with a cell suspension of the appropriate test organism. Bacteria are grown in broth, fungi on agar slants for a time and at a temperature appropriate to the species being tested, and algae are a mixture of green algae and blue-green bacteria grown in a nutrient media. At the end of the growth period, in the case of bacteria, the broth is vortexed to disperse the cells.
(§4) In the case of fungi, the spores are harvested by pipetting water onto the slant and dislodging the spores with a sterile loop. The cell/spore suspension is standardized by controlling incubation time, temperature, and the volume of the diluent. The suspension is then used to inoculate the vessels containing the broth compound.
(§5) The vessels are then incubated at the appropriate temperature. After the incubation, the vessels are examined for growth/no growth. The minimum inhibitory concentration (MIC) is defined as the lowest concentration of compound that results in complete inhibition of growth of the test organism.
1. Pseudomonas aeruginosa

Escherichia coli = type: cell-based, Escherichia coli (ATCC 11229); conditions: Table 2, Ecol
Description: as §1, §2, §3, §4, §5

Staphylococcus aureus = type: cell-based, Staphylococcus aureus (ATCC 6538); conditions: Table 2, Saur
Description: as §1, §2, §3, §4, §5
2. Staphylococcus aureus

Aspergillus niger = type: cell-based, Aspergillus niger (ATCC 6275); conditions: Table 2, Anig, TSB media
Description: as §1, §2, §3, §4, §5
4. Aspergillus niger 6275 Anig

[1] = Pseudomonas aeruginosa, M9G media, read-out: MIC
[2] = Pseudomonas aeruginosa, TSB media, read-out: MIC
[3] = Escherichia coli, M9G media, read-out: MIC
[4] = Escherichia coli, TSB media, read-out: MIC
[5] = Staphylococcus aureus, M9G media, read-out: MIC
[6] = Staphylococcus aureus, TSB media, read-out: MIC
[7] = Aspergillus niger, read-out: MIC

MIC (Pseudomonas aeruginosa; [1]) [µg/mL] | MIC (Pseudomonas aeruginosa; [2]) [µg/mL] | MIC (Escherichia coli; [3]) [µg/mL] | MIC (Escherichia coli; [4]) [µg/mL] | MIC (Staphylococcus aureus; [5]) [µg/mL] | MIC (Staphylococcus aureus; [6]) [µg/mL] | MIC (Aspergillus niger; [7]) [µg/mL] | MIC (Pseudomonas aeruginosa; M9G media) [ppm] | MIC (Pseudomonas aeruginosa; TSB media) [ppm] | MIC (Escherichia coli; M9G media) [ppm] | MIC (Escherichia coli; TSB media) [ppm] | MIC (Staphylococcus aureus; M9G media) [ppm] | MIC (Staphylococcus aureus; TSB media) [ppm] | MIC (Aspergillus niger) [ppm] | Compound
500 | 500 | 16 | 63 | 1 | 1 | 32 | – | – | – | – | – | – | – | CCCCCCCCCCCCCCCCCC[N+]1(CC#CI)CCCC1 [Compound 16, t-octadecyl-1-(3-iodopropargyl)-pyrrolidinium 4-methylbenzenesulfonate]
– | – | – | – | – | – | – | 8 | 32 | 1 | 4 | 0.25 | 0.25 | 4 | CCCCCCCCCCCCCC[N+]1(CC#CI)CCCC1 [Compound 69, 1-tetradecyl-1-(3-iodopropargyl)-pyrrolidinium bromide]
> 500 | > 500 | 32 | 64 | 8 | 16 | 125 | – | – | – | – | – | – | – | CCCCCCCC[N+]1(CC#CI)CCOCC1 [Compound 92, 4-n-octyl-4-(3-iodopropargyl)-morpholinium methanesulfonate]
– | – | – | – | – | – | – | 500 | > 500 | 8 | 64 | 32 | 64 | 16 | CCCCCCCCCCOC(=O)CC[N+]1(CC#CI)CCOCC1 [Compound 96]
64 | – | 2 | 4 | – | – | – | – | 125 | – | – | 2 | 4 | 2 | CCCCCCCCCCCCOC(=O)C[N+]1(CC#CI)CCCC1 [Compound 63, 1-(dodecyloxycarbonyl)methyl-1-(3-iodopropargyl)-pyrrolidinium 4-methylbenzenesulfonate]
– | – | – | – | – | – | – | 16 | 125 | 8 | 8 | 2 | 2 | 8 | CCCCCCCCCCCCCCCC[N+]1(CC#CI)CCCCC1 [Compound 61, 1-hexadecyl-1-(3-iodopropargyl)-piperidinium methanesulfonate]
> 500 | > 500 | 125 | 125 | > 500 | > 500 | 500 | – | – | – | – | – | – | – | CCCC[N+]1(CC#CI)CCOCC1 [Compound 93, 4-n-butyl-4-(3-iodopropargyl)-morpholinium methanesulfonate]
> 250 | > 250 | – | > 250 | > 250 | > 250 | 63 | – | – | – | – | – | – | – | OCCCCCCCCC[N+]1(CC#CI)CCCCC1 [Compound 21, 1-(9-hydroxynonyl)-1-(3-iodopropargyl)-piperidinium 4-methylbenzenesulfonate]
– | – | – | – | – | – | – | 32 | 125 | 4 | 16 | < 0.25 | < 0.25 | < 0.25 | CCCCCCCCCCCCCCCC[N+]1(CC#CI)CCCC1 [Compound 32, 1-hexadecyl-1-(3-iodopropargy)-pyrrolidinium benzenesulfonate]

Compound | MIC (Pseudomonas aeruginosa; [1]) [µg/mL] | MIC (Pseudomonas aeruginosa; [2]) [µg/mL] | MIC (Escherichia coli; [3]) [µg/mL] | MIC (Escherichia coli; [4]) [µg/mL] | MIC (Staphylococcus aureus; [5]) [µg/mL] | MIC (Staphylococcus aureus; [6]) [µg/mL] | MIC (Aspergillus niger; [7]) [µg/mL] | MIC (Pseudomonas aeruginosa; M9G media) [ppm] | MIC (Pseudomonas aeruginosa; TSB media) [ppm] | MIC (Escherichia coli; M9G media) [ppm] | MIC (Escherichia coli; TSB media) [ppm] | MIC (Staphylococcus aureus; M9G media) [ppm] | MIC (Staphylococcus aureus; TSB media) [ppm] | MIC (Aspergillus niger) [ppm]
CCCCCCCCCCCCCC[N+]1(CC#CI)CCOCC1 [Compound 72, 4-tetradecyl-4-(3-iodopropargyl)-rnorpholinium iodide] | – | – | – | – | – | – | – | 16 | 64 | 0.5 | 4 | 0.25 | 0.25 | 4
CCCCCCCCCCCCCC[N+]1(CC#CI)CCCCC1 [Compound 59, 1-tetradecyl-1-(3-iodopropargyl)-piperidinium benzenesulfonate] | – | – | – | – | – | – | – | 32 | 125 | 8 | 16 | 4 | 4 | 8
